Experimental data published in US20260364080A1, “PYRAZOLO-PYRIMIDINONE COMPOUNDS FOR USE IN METHODS OF INHIBITING WEE1 A KINASE” (Acrivon Therapeutics, Inc., priority 2023, published 2026).
Like-named read-outs stand apart in the source and are kept apart here.

Columns and labels:
[1] = target: T1, Wee1A kinase (CDK1 Tyr15 phosphorylation in ACHN renal cell carcinoma cells) (Homo sapiens, UniProt P30291); assay: High-content imaging of pCdk1 Y15, Wee1A kinase target engagement in ACHN cells; type: cell-based
T1 construct: pCDK1 Tyr15 immunofluorescence read-out
T1 sequence (P30291 whole entry): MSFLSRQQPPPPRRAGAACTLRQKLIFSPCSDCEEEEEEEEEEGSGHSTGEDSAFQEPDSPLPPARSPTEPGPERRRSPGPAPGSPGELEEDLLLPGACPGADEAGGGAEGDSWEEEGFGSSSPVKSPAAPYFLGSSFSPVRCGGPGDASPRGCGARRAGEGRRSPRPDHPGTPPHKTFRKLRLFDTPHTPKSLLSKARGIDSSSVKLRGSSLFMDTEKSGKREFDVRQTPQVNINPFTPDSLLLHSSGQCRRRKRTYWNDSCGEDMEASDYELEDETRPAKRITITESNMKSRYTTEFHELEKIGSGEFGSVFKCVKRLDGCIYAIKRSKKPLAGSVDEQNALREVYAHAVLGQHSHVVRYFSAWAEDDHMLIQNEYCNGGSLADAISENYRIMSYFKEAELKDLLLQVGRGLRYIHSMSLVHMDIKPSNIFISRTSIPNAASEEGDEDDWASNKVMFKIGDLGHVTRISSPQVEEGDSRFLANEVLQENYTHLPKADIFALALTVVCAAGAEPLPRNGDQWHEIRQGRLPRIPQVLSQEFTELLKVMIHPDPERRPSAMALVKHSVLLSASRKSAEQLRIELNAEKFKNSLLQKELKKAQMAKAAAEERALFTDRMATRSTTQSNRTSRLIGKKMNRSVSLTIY
In short: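 EC50 values come from the per-well fraction of cells with nuclear pCdk1 Y15 staining, normalised to DMSO control, by automated immunofluorescence imaging. Cells were ACHN renal carcinoma, treated 4 h with compound at 7–5,000 nM or 0.3–200 nM.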

[2] = target: T2, Myt1 kinase (recombinant PMYT-1) (Homo sapiens, UniProt Q99640); assay: Myt1 kinase binding assay (LanthaScreen Eu Kinase Binding Assay)
T2 construct: full length PMYT-1 was expressed by baculovirus in insect cells; purchased Invitrogen A30984; host or cells: insect cells (baculovirus)
T2 sequence (Q99640 1-499): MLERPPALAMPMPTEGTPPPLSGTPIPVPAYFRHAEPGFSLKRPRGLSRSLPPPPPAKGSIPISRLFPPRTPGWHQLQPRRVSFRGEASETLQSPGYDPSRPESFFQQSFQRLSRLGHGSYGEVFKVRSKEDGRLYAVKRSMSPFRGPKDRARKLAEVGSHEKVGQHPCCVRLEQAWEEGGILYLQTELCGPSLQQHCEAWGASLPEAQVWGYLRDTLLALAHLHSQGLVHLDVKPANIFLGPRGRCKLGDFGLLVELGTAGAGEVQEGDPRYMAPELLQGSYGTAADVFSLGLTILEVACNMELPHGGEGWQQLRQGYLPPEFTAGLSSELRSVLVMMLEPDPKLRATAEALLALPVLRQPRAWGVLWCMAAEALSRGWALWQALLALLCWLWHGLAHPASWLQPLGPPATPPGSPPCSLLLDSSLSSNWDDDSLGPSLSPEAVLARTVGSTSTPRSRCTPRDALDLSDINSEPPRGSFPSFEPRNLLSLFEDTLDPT
In short: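 Compound binding to Myt1 kinase was assessed using the LanthaScreen Eu Kinase Binding Assay. This europium-based binding format was applied to quantify how strongly each compound bound to the Myt1 enzyme, and the binding affinity was reported for each compound as an IC50 value.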

[3] = target: T3, recombinant human Wee1A kinase (Homo sapiens, UniProt P30291); assay: Wee1A kinase binding assay (LanthaScreen Eu time-resolved FRET)
T3 construct: full length Wee1 kinase was expressed by baculovirus in insect cells; purchased Invitrogen PV3817; host or cells: insect cells (baculovirus)
T3 sequence (P30291 whole entry): as the sequence (P30291 whole entry) above
In short: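 Full-length, baculovirus-expressed GST-tagged Wee1A (5 nM) was mixed with 2 nM Eu-anti-GST antibody, 30 nM kinase tracer 178 and compound (1% DMSO). Buffer was 50 mM HEPES pH 7.5, 10 mM MgCl2, 1 mM EGTA, 0.01% Brij-35, incubated 60 min at room temperature. TR-FRET 665/615 nm emission ratios from duplicates were curve-fitted.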

[4] = read-out: CDK1 Tyr15 Phosphorylation EC50, 4 h treatment, nuclear positivity for pCdk1 Y15 vs DMSO control
[5] = Myt1 kinase Binding IC50, 3 nM tracer 178, 2.5 nM PMYT-1, 1 nM Eu-labeled antibody
[6] = 4 h treatment, nuclear positivity for pCdk1 Y15 vs DMSO control, read-out: CDK1 Tyr15 Phosphorylation EC50
[7] = 3 nM tracer 178, 2.5 nM PMYT-1, 1 nM Eu-labeled antibody, read-out: Myt1 kinase Binding IC50
[8] = 30 nM tracer 178, 5 nM Wee1A kinase, 2 nM Eu-labeled antibody, 60 minutes at room temperature, read-out: Wee1A kinase Binding IC50

Structure (SMILES)	EC50 [1, 4] [nM]	IC50 [2, 5] [nM]	IC50 [3] [nM]	EC50 [1, 6] [nM]	IC50 [2, 7] [nM]	IC50 [3, 8] [nM]
C=CCn1c(=O)c2cnc(Nc3cnn(CC(C)C)c3)nc2n1-c1cccc(N(C)C2CCNCC2)n1 [Compound 170, 1-{6-[methyl(piperidin-4-yl)amino]pyridin-2-yl}-6-{[1-(2-methylpropyl)-1H-pyrazol-4-yl]amino}-2-(prop-2-en-1-yl)-1H,2H,3H-pyrazolo[3,4-d]pyrimidin-3-one]	> 1000	> 500	< 10			
C=CCn1c(=O)c2cnc(Nc3ccc(Cl)cc3)nc2n1-c1cccc(N(C)[C@@H]2CCCNC2)n1 [Compound 171, 1-{6-[N—(R)-3-piperidyl-N-methylamino]-2-pyridyl}-2-allyl-6-(p-chlorophenylamino)-1,2-dihydro-3H-1,2,5,7-tetraazainden-3-one]				> 1000	> 500	< 10
C=CCn1c(=O)c2cnc(Nc3cnn(C(C)C)c3)nc2n1-c1cccc(N(C)C2CCN(C)CC2)n1 [Compound 174, 1-{6-[methyl(1-methylpiperidin-4-yl)amino]pyridin-2-yl}-2-(prop-2-en-1-yl)-6-{[1-(propan-2-yl)-1H-pyrazol-4-yl]amino}-1H,2H,3H-pyrazolo[3,4-d]pyrimidin-3-one]	100 to 500	> 500	< 10			
C=CCn1c(=O)c2cnc(Nc3cnn(CC(C)C)c3)nc2n1-c1cccc(N(C)C2CCN(C)CC2)n1 [Compound 175, 1-{6-[methyl(1-methylpiperidin-4-yl)amino]pyridin-2-yl}-6-{[1-(2-methylpropyl)-1H-pyrazol-4-yl]amino}-2-(prop-2-en-1-yl)-1H,2H,3H-pyrazolo[3,4-d]pyrimidin-3-one]	500 to 1000	> 500	< 10			
C=CCn1c(=O)c2cnc(Nc3ccc(Cl)cc3)nc2n1-c1cccc(O[C@H]2CN3CCC2CC3)n1 [Compound 176, 1-{6-[(3R)-1-azabicyclo[2.2.2]octan-3-yloxy]pyridin-2-yl}-6-[(4-chlorophenyl)amino]-2-(prop-2-en-1-yl)-1H,2H,3H-pyrazolo[3,4-d]pyrimidin-3-one]	> 1000	> 500	< 10			
C=CCn1c(=O)c2cnc(Nc3cnn(CCC)c3)nc2n1-c1cccc(N(C)C2CCN(C)CC2)n1 [Compound 177, 1-{6-[N-methyl(1-methyl-4-piperidyl)amino]-2-pyridyl}-2-allyl-6-(1-propyl-4-pyrazolylamino)-1,2-dihydro-3H-1,2,5,7-tetraazainden-3-one]	100 to 500	> 500	< 10			
C=CCn1c(=O)c2cnc(Nc3ccc(OCC(F)(F)F)c(C)c3)nc2n1-c1cccc(NC2CCNCC2)n1 [Compound 178, 2-allyl-1-[6-(4-piperidylamino)-2-pyridyl]-6-[4-(2,2,2-trifluoroethoxy)-3-toluidino]-1,2-dihydro-3H-1,2,5,7-tetraazainden-3-one]				100 to 500	100 to 500	< 10
C=CCn1c(=O)c2cnc(Nc3cnn(CCC)c3)nc2n1-c1cccc(OC2CCNCC2)n1 [Compound 179, 2-allyl-1-[6-(4-piperidyloxy)-2-pyridyl]-6-(1-propyl-4-pyrazolylamino)-1,2-dihydro-3H-1,2,5,7-tetraazainden-3-one]				> 1000	> 500	< 10
C=CCn1c(=O)c2cnc(Nc3cnn(C)c3)nc2n1-c1cccc(N(C)C2CCNCC2)n1 [Compound 182, 1-{6-[methyl(piperidin-4-yl)amino]pyridin-2-yl}-6-[(1-methyl-1H-pyrazol-4-yl)amino]-2-(prop-2-en-1-yl)-1H,2H,3H-pyrazolo[3,4-d]pyrimidin-3-one]	> 1000	> 500	< 10			
C=CCn1c(=O)c2cnc(Nc3cnn(CC(C)(C)F)c3)nc2n1-c1cccc(N(C)C2CCNCC2)n1 [Compound 183, 1-[6-(N-methyl-N-4-piperidylamino)-2-pyridyl]-2-allyl-6-[1-(2-fluoro-2-methylpropyl)-4-pyrazolylamino]-1,2-dihydro-3H-1,2,5,7-tetraazainden-3-one]	> 1000	> 500	< 10			
C=CCn1c(=O)c2cnc(Nc3cnn(C)c3)nc2n1-c1cccc(N(C)C2CCN(C)CC2)n1 [Compound 184, 1-{6-[methyl(1-methylpiperidin-4-yl)amino]pyridin-2-yl}-6-[(1-methyl-1H-pyrazol-4-yl)amino]-2-(prop-2-en-1-yl)-1H,2H,3H-pyrazolo[3,4-d]pyrimidin-3-one]	100 to 500	> 500	< 10			
C=CCn1c(=O)c2cnc(Nc3cnn(CC(C)(C)F)c3)nc2n1-c1cccc(N(C)C2CCN(C)CC2)n1 [Compound 185, 6-{[1-(2-fluoro-2-methylpropyl)-1H-pyrazol-4-yl]amino}-1-{6-[methyl(1-methylpiperidin-4-yl)amino]pyridin-2-yl}-2-(prop-2-en-1-yl)-1H,2H,3H-pyrazolo[3,4-d]pyrimidin-3-one]	500 to 1000	> 500	< 10			
C=CCn1c(=O)c2cnc(Nc3ccc(Cl)cc3)nc2n1-c1cccc(O[C@@H]2CCCN(C)C2)n1 [Compound 187, 1-{6-[(R)-1-methyl-3-piperidyloxy]-2-pyridyl}-2-allyl-6-(p-chlorophenylamino)-1,2-dihydro-3H-1,2,5,7-tetraazainden-3-one]				500 to 1000	100 to 500	< 10
C=CCn1c(=O)c2cnc(Nc3cnn(C)c3)nc2n1-c1cccc(O[C@@H]2C[C@H]3CC[C@@H](C2)N3C)n1 [Compound 189, 6-[(1-methyl-1H-pyrazol-4-yl)amino]-1-(6-{[(cis)-8-methyl-8-azabicyclo[3.2.1]octan-3-yl]oxy}pyridin-2-yl)-2-(prop-2-en-1-yl)-1H,2H,3H-pyrazolo[3,4-d]pyrimidin-3-one]	500 to 1000	> 500	< 10			
C=CCn1c(=O)c2cnc(Nc3ccc(Cl)cc3)nc2n1-c1cccc(O[C@@H]2CCCNC2)n1 [Compound 192, 1-{6-[(R)-3-piperidyloxy]-2-pyridyl}-2-allyl-6-(p-chlorophenylamino)-1,2-dihydro-3H-1,2,5,7-tetraazainden-3-one]				100 to 500	100 to 500	< 10
C=CCn1c(=O)c2cnc(Nc3cnn(C(C)C)c3)nc2n1-c1cccc(OC2CC3CCCC(C2)N3C)n1 (stereo not drawn) [Compound 193, 2-allyl-6-(1-isopropyl-4-pyrazolylamino)-1-{6-(9-methyl-9-azabicyclo[3.3.1]non-3-yloxy)-2-pyridyl}-1,2-dihydro-3H-1,2,5,7-tetraazainden-3-one]				100 to 500	> 500	< 10
C=CCn1c(=O)c2cnc(Nc3cnn(CCC(F)(F)F)c3)nc2n1-c1cccc(N(C)C2CCN(C)CC2)n1 [Compound 201, 2-allyl-1-(6-(methyl(1-methylpiperidin-4-yl)amino)pyridin-2-yl)-6-((1-(3,3,3-trifluoropropyl)-1H-pyrazol-4-yl)amino)-1,2-dihydro-3H-pyrazolo[3,4-d]pyrimidin-3-one]	500 to 1000	100 to 500	< 10			
C=CCn1c(=O)c2cnc(Nc3cc(C)nc(C(F)(F)F)c3)nc2n1-c1cccc(OC2CCN(C)CC2)n1 [Compound 202, 6-{[2-methyl-6-(trifluoromethyl)pyridin-4-yl]amino}-1-{6-[(1-methylpiperidin-4-yl)oxy]pyridin-2-yl}-2-(prop-2-en-1-yl)-1H,2H,3H-pyrazolo[3,4-d]pyrimidin-3-one]				500 to 1000	100 to 500	< 10
C=CCn1c(=O)c2cnc(Nc3ccc4c(cnn4C)c3)nc2n1-c1cccc(OC2CCNCC2)c1 [Compound 223, 2-allyl-6-(1-methyl-1H-indazol-5-ylamino)-1-[m-(4-piperidyloxy)phenyl]-1,2-dihydro-3H-1,2,5,7-tetraazainden-3-one]				100 to 500	> 500	< 10
